Reference: patent EP0659743A1, “Piperidine derivatives as inhibitors of platelet aggregation and their preparation” (HOECHST AKTIENGESELLSCHAFT, priority 1993, dated 1995)

Experiments:
[1] = test system: Human Platelet; test: In-vitro Human Platelet Aggregation in PRP (ADP induced); assay type: cell-based; details: PRP (platelet rich plasma), 37°C, read-out: IC₅₀(µM) Inhibitor of ADP induced Platelet aggregation
Description: The compounds of the above invention are tested for platelet binding inhibitory activity in the following assays: • 1. In-vitro Human Platelet Aggregation in PRP: Blood is drawn from healthy human volunteers who had no medication for at least two weeks. 8.4 ml of venous blood are collected into 1.4 ml of ACD solution (citric acid 0.8 %, sodium citrate 2.2 %, hirudin 0.6 u/ml) and centrifuged for 10 min. at 120 g. The platelet rich plasma (PRP) is carefully removed and remaining blood is further centrifuged at 1200 g for 15 min. to separate platelet poor plasma (PPP). For aggregation studies the aggregometer is adjusted by using PPP and PRP. ADP is then added tp PRP which is kept at 37°C and stirred constantly at 1000 rpm. The aggregation of platelets causes an increase in transparency of PRP which is recorded. • 2. Preparation of Gel Filtered Platelets (GFP): Platelet rich plasma (PRP) is collected as mentioned in the above procedure. Its pH is adjusted to 6.5 with ACD solution and then centrifuged at 285 g for 20 min.. The resulting pellet is resuspended in Tyrode's buffer (NaCl, 7.01 g/l; KCl, 0194 g/l; NaHCO₃, 1.01 g/l; Glucose, 1.09 g/l; NaH₂PO₄, 0.061 g/l; Hepes, 2.380 g/l; albumin, 3.5 g/l) and the platelet suspension is applied on to a ^RSepharose CL 20 column. Equilibrium and elution is done with Tyrode's buffer. Platelets are recovered in the void volume. Final platelet concentration is adjusted to 4 X 108 platelets/ml. For the aggregation studies, GFP in Tyrodes buffer is mixed with calcium chloride (final concentration […]) and an agonist (ADP or Thrombin) with or without test compound (1 to 300 µM) and incubated at 37°C for 3 min.. After the addition of fibrinogen (final conc. 1 mg/ml) the aggregation is recorded.
Aggregation maximum for PRP or GFP without any inhibitor is taken as 100 % aggregation and is compared with aggregation maximum of RPR or GFP incubated with the test compound.

[2] = test system: Gel Filtered Platelets (GFP); test: ADP induced aggregation of Gel Filtered Platelets (GFP); assay type: cell-based; details: Homo sapiens, Platelet, 0.05 h, GFP (gel filtered platelets) in Tyrode's buffer, fibrinogen 1 mg/ml, 37°C for 3 min, read-out: IC₅₀(µM) Inhibitor of ADP induced Platelet aggregation
Description: The compounds of the above invention are tested for platelet binding inhibitory activity in the following assays: • 1. In-vitro Human Platelet Aggregation in PRP: Blood is drawn from healthy human volunteers who had no medication for at least two weeks. 8.4 ml of venous blood are collected into 1.4 ml of ACD solution (citric acid 0.8 %, sodium citrate 2.2 %, hirudin 0.6 u/ml) and centrifuged for 10 min. at 120 g. The platelet rich plasma (PRP) is carefully removed and remaining blood is further centrifuged at 1200 g for 15 min. to separate platelet poor plasma (PPP). For aggregation studies the aggregometer is adjusted by using PPP and PRP. ADP is then added tp PRP which is kept at 37°C and stirred constantly at 1000 rpm. The aggregation of platelets causes an increase in transparency of PRP which is recorded. • 2. Preparation of Gel Filtered Platelets (GFP): Platelet rich plasma (PRP) is collected as mentioned in the above procedure. Its pH is adjusted to 6.5 with ACD solution and then centrifuged at 285 g for 20 min.. The resulting pellet is resuspended in Tyrode's buffer (NaCl, 7.01 g/l; KCl, 0194 g/l; NaHCO₃, 1.01 g/l; Glucose, 1.09 g/l; NaH₂PO₄, 0.061 g/l; Hepes, 2.380 g/l; albumin, 3.5 g/l) and the platelet suspension is applied on to a ^RSepharose CL 20 column. […] After the addition of fibrinogen (final conc. 1 mg/ml) the aggregation is recorded. […]

COC(=O)COc1ccc(C=CC(=O)c2c(OC)cc(OC)c(C3CCN(C)CC3O)c2O)cc1 (centres unmarked) [Compound 2]
IC50 [1]: 5.3 µM | IC50 [2]: 0.53 µM

COC(=O)COc1ccc(C=CC(=O)c2c(OC)cc(OC)c(C3CCN(C)CC3)c2O)cc1 [Compound 6]
IC50 [1]: 17 µM

COC(=O)COc1ccc(CCC(=O)c2c(OC)cc(OC)c(C3CCN(C)CC3)c2O)cc1 [Compound 7]
IC50 [1]: 8 µM | IC50 [2]: 2 µM
